± gives the standard deviation of the reports.
SMILES | glass transition temperature [°C]
*CCCC(*)C (repeat unit) | -52.60
*C(F)(F)C(=O)NCCCCCCNS(*)(=O)=O (repeat unit) | 52.00
*OC1C(COC(C)=O)OC(*)C(OC(C)=O)C1OC(C)=O (repeat unit) | 178.00
*Cc1ccc(COP(=O)(/N=N/c2ccc(C(=O)c3ccc(/N=N/P(=O)(O*)OC)cc3)cc2)OC)cc1 (repeat unit) | 48.00
*O[Si](*)(C)CCCCCCCCCCC(F)(F)C(F)(F)C(F)(F)C(F)(F)C(F)(F)C(F)(F)C(F)(F)C(F)(F)F (repeat unit) | -78.00
*CC(*)OCC(C)C (repeat unit) [Poly(isobutyl vinyl ether)] | -22.08 ± 2.5
*CCCCCCCCOC(=O)c1ccc(C(=O)O*)cc1 (repeat unit) | 45.00
*CCCC(*)(C)C(=O)O (repeat unit) | 132.00
*c1cccc(P(=O)(c2ccccc2)c2cccc(N3C(=O)c4ccc(NC(=O)OCCOc5ccc(P(=O)(c6ccccc6)c6ccc(OCCOC(=O)Nc7ccc8c(c7)C(=O)N(*)C8=O)cc6)cc5)cc4C3=O)c2)c1 (repeat unit) | 218.00
*CC1CCC(COP(=O)(/N=N/c2ccc(Oc3ccc(/N=N/P(=O)(O*)OC)cc3)cc2)OC)CC1 (repeat unit) | 50.00
*/C(C)=[C](/*)[Ge]([CH3])([CH3])[CH3] (repeat unit) | 250.00
*CCN(*)C(=O)c1c(F)ccc(F)c1F (repeat unit) | 124.00
*CC(*)(C)C(=O)OC12CC3CC(C)(CC(C)(C3)C1)C2 (repeat unit) | 194.00
*OC(F)(F)C(*)(F)F (repeat unit) | -48.00
*/C(C#N)=C/c1cc(OCC(CC)CCCC)c(/C=C(\C#N)c2ccc3c4ccc(*)cc4n(CC(CC)CCCC)c3c2)cc1OCC(CC)CCCC (repeat unit) | 72.00
*CC(OCCCC)C(C)(C(=O)OC)C(*)(C)C(=O)OC (repeat unit) | 97.50
*CCCC(C)CNC(=O)c1ccc(C(=O)N*)cc1 (repeat unit) | 153.00
*O[Si](C)(C)O[Si](C)(C)Oc1c(C)cc(-c2cc(C)c(*)c(C)c2)cc1C (repeat unit) | 55.00
*CC1CCC(COC(=O)O*)CC1 (repeat unit) | 38.70
*CC(*)(C)c1nc(N(CCOCCOCCOC)CCOCCOCCOC)nc(N(CCOCCOCCOC)c2ccccc2)n1 (repeat unit) | -75.00
*CC1CCCC(CNC(=O)c2cc(C(=O)N*)cc(C(C)(C)C)c2)C1 (repeat unit) | 200.00
*C1c2cccc3cccc(c23)C1* (repeat unit) | 250.00
*CCCCCCCCCOC(=O)Nc1ccc(Cc2ccc(NC(=O)O*)cc2)cc1 (repeat unit) | 72.00
*/C=C/c1sc(-c2ccc3c(c2)C(CCCCCC)(CCCCCC)c2cc(-c4sc(/C=C/C5=CC(=C(C#N)C#N)C=C(*)O5)c(CCCCCC)c4CCCCCC)ccc2-3)c(CCCCCC)c1CCCCCC (repeat unit) | 115.00

Other lines, results leading:

glass transition temperature [°C] | SMILES
71.00 | *Oc1cc(OC(=O)c2ccc(OCC)cc2)c(OC(=O)CCCC(*)=O)cc1OC(=O)c1ccc(OCC)cc1 (repeat unit)
275.40 | *Oc1ccc(S(=O)(=O)c2ccc(Oc3c(C)cc(C(C)(C)c4cc(C)c(*)c(C)c4Br)c(Br)c3C)cc2)cc1 (repeat unit)
265.00 | *c1ccc(Oc2ccc(Oc3ccc(N4C(=O)c5ccc(-c6ccc7c(c6)C(=O)N(*)C7=O)cc5C4=O)cc3)c(C)c2)cc1 (repeat unit)
107.00 | *CC(*)(C)C(=O)OCCN(C)c1ccc(/C=C/c2ccc([N+](=O)[O-])cc2)cc1 (repeat unit)
199.70 | *Oc1ccc(S(=O)(=O)c2ccc(Oc3ccc(C(c4ccc(*)cc4)(C(F)(F)F)C(F)(F)F)cc3)cc2)cc1 (repeat unit)
250.00 | *CCCCCCc1ccc(-c2c(-c3ccccc3)cc(-c3ccc(-c4cc(-c5ccccc5)c(-c5ccc(*)cc5)c(-c5ccccc5)c4-c4ccccc4)cc3)c(-c3ccccc3)c2-c2ccccc2)cc1 (repeat unit)
250.00 | *c1cccc(NC(=O)c2ccc(OCCOc3ccc(C(=O)Nc4ccc5[nH]c(*)nc5c4)cc3)cc2)c1 (repeat unit)
234.00 | *c1ccc(Oc2ccc(-c3ccc(Oc4ccc(N5C(=O)c6cccc(Oc7ccc(C(c8ccc(Oc9cccc%10c9C(=O)N(*)C%10=O)cc8)(C(F)(F)F)C(F)(F)F)cc7)c6C5=O)cc4)cc3)cc2)cc1 (repeat unit)
45.00 | *Oc1ccccc1C(=O)OC(=O)c1ccccc1OC(=O)C(C)C(C)C(*)=O (repeat unit)
231.00 | *C(=O)Nc1ccc(Oc2ccc(C(c3ccc(Oc4ccc(NC(=O)c5ccc6c(c5)C(=O)N(c5ccc(Oc7cccc8c(Oc9ccc(N%10C(=O)c%11ccc(*)cc%11C%10=O)cc9)cccc78)cc5)C6=O)cc4)cc3)(C(F)(F)F)C(F)(F)F)cc2)cc1 (repeat unit)
199.00 | */C=C(/c1ccc(*)cc1)c1ccc(C(F)(F)F)cc1 (repeat unit)
297.50 | *C(=O)Nc1cccc(NC(=O)c2ccc3[nH]c(-c4cccc(-c5nc6cc(*)ccc6[nH]5)c4)nc3c2)c1 (repeat unit)
264.00 | *Oc1ccc(C(C)(C)c2ccc(Oc3ccc(C(=O)c4c(C(=O)c5ccc(*)cc5)c(-c5ccccc5)c(-c5ccc6ccccc6c5)c(-c5ccc6ccccc6c5)c4-c4ccccc4)cc3)cc2)cc1 (repeat unit)
236.00 | *Oc1cccc2ccc(Oc3ccc(NC(=O)c4ccc(Oc5ccc(C(=O)Nc6ccc(*)cc6)cc5)cc4)cc3)cc12 (repeat unit)
203.50 | *Nc1ccc(Nc2ccc(C(=O)c3ccc(C(=O)c4ccc(*)cc4)cc3)cc2)cc1 (repeat unit)
180.00 | *Oc1ccc(S(=O)(=O)c2ccc(Oc3ccc(C(C)(C)c4ccc(*)c(C)c4)cc3C)cc2)cc1 (repeat unit)
112.00 | *CCCCCCNC(=O)c1ccc(C(=O)N*)c(Oc2ccc(-c3ccccc3)cc2)c1 (repeat unit)
239.00 | *c1ccc(Oc2ccc(C(=O)c3ccc(C(=O)c4ccc(C(=O)c5ccc(Oc6ccc(-c7nc(-c8ccccc8)[nH]c7*)cc6)cc5)cc4)cc3)cc2)cc1 (repeat unit)

glass transition temperature [°C] | SMILES
142.00 | *c1cccc(OCCCCCCCCOc2cccc(N3C(=O)c4ccc(-c5cccc6c5C(=O)N(*)C6=O)cc4C3=O)c2)c1 (repeat unit)
49.00 | *CCCCCCCCCCCOC(=O)c1ccc(-c2ccc(C(=O)O*)cc2)cc1 (repeat unit)
258.00 | *c1ccc(Oc2ccc(N3C(=O)c4ccc(Sc5ccc6c(c5)C(=O)N(*)C6=O)cc4C3=O)cc2)cc1 (repeat unit)
227.00 | *c1ccc(-c2ccc(NC(=O)c3cccc(C(=O)Nc4ccc(-c5ccc(-n6c(=O)c7cc8c(=O)n(*)c(=O)c8cc7c6=O)cc5)cc4)c3)cc2)cc1 (repeat unit)
178.00 | *c1cc(C(c2ccc(OCc3cc(OCCN(C)c4ccc(/C=C/C5=CC(=C(C#N)C#N)CC(C)(C)C5)cc4)cc(OCCN(C)c4ccc(/C=C/C5=CC(=C(C#N)C#N)CC(C)(C)C5)cc4)c3)c(N3C(=O)c4ccc(Oc5ccc6c(c5)C(=O)N(*)C6=O)cc4C3=O)c2)(C(F)(F)F)C(F)(F)F)ccc1OCc1cc(OCCN(C)c2ccc(/C=C/C3=CC(=C(C#N)C#N)CC(C)(C)C3)cc2)cc(OCCN(C)c2ccc(/C=C/C3=CC(=C(C#N)C#N)CC(C)(C)C3)cc2)c1 (repeat unit)
270.00 | *c1ccc(Oc2ccc(-c3cnc4ccc(Oc5ccc6nc(*)cnc6c5)cc4n3)cc2)cc1 (repeat unit)
190.50 | *c1ccc(Oc2ccc(N3C(=O)c4ccc([Si](C)(C)O[Si](C)(C)c5ccc6c(c5)C(=O)N(c5ccc(Oc7ccc(-c8nnc(*)o8)cc7)cc5)C6=O)cc4C3=O)cc2)cc1 (repeat unit)
81.00 | *Oc1ccc(C(c2ccc(OC(=O)Nc3ccc(Cc4ccc(NC(*)=O)cc4)cc3)cc2)(C(F)(F)F)C(F)(F)F)cc1 (repeat unit)
265.00 | *C(=O)Nc1ccc(Oc2ccc(-c3ccc(Oc4ccc(NC(=O)c5ccc6c(c5)C(=O)N(c5ccc(Oc7ccc(C8(c9ccc(Oc%10ccc(N%11C(=O)c%12ccc(*)cc%12C%11=O)cc%10)cc9)CC9CC8C8CCCC98)cc7)cc5)C6=O)cc4)cc3C)c(C)c2)cc1 (repeat unit)
158.00 | *CCCCCC(=O)Nc1ccc(Oc2ccc(Oc3ccc(NC(=O)CCCCCN4C(=O)c5ccc(C(=O)c6ccc7c(c6)C(=O)N(*)C7=O)cc5C4=O)cc3)cc2)cc1 (repeat unit)
20.00 | *CCCCOc1cccc(C(=O)OC(=O)c2cccc(O*)c2)c1 (repeat unit)
196.00 | *Oc1ccc(C(c2ccc(OC(*)=O)cc2)C2C3CCC(C3)C2c2ccccc2)cc1 (repeat unit)
140.00 | *CCOCCOc1cccc(NC(=O)c2ccc(C(=O)Nc3cccc(O*)c3)cc2)c1 (repeat unit)
57.00 | *O[Si](*)(C)CCCOc1ccc(C(=O)Oc2ccc(C#N)cc2)cc1 (repeat unit)
154.00 | *C(=O)c1ccc(C(=O)c2ccc(Oc3ccc(C(C)(C)c4ccc(Oc5ccc(*)s5)cc4)cc3)s2)cc1 (repeat unit)
254.00 | *Nc1cc(NC(=O)c2ccc(-c3ccc(C(*)=O)cc3)cc2)cc(C(=O)OCCOc2ccc(/C=C/C(=O)c3ccccc3)cc2)c1 (repeat unit)
248.00 | *C(=O)c1ccc2c(c1)/C(=N\c1ccc(Oc3ccc(C(c4ccc(Oc5ccc(/N=C6/OC(=O)c7ccc(*)cc76)cc5)cc4)(C(F)(F)F)C(F)(F)F)cc3)cc1)OC2=O (repeat unit)
238.00 | *Nc1cccc(NC(=O)c2ccc(C(*)=O)cc2)c1 (repeat unit)
